Six compounds from patent publication US7169785B2, “Methods and compositions of novel triazine compounds” (Reddy US Therapeutics, Inc., priority 2001, dated 2007) can be followed below.

The test system of series [1] is HAEC. Put plainly: Toxicity to endothelial cells (HAEC) when TNF stimulated. The class given is cell-based. The method, then:
Human aortic endothelial cells (HAEC, Clonetics) were cultured according to manufacturer in growth medium (Clonetics): basal medium containing human epidermal growth factor, hydrocortisone, vascular endothelial growth factor, heparin binding growth factor-B, long R3-insulin-like growth factor-1, ascorbic acid, gentamicin/amphotericin and 5% FBS. These cell were allowed to reach at least 90% confluency before subjected to experimental treatments. Glycated human serum albumin (G-HSA) was from US Biologicals. Tumor necrosis factor α was from R&D Systems.
[…] All treatments, compound-added and controls were carried out in serum free media containing 0.2% albumin. Media from all conditions were collected and used for IL-6 ELISA.

Series [2] has as its system IL-6. Put plainly: TNF-α-induced IL-6 production determined by IL-6 ELISA in HAEC. To be noted: Homo sapiens, 24 h. Format: cell-based, human.
Series [3] deals with endothelial cells. The series can be described thus: Toxicity to endothelial cells when AGE stimulated. The class given is cell-based, human. The method, then:
Human aortic endothelial cells (HAEC, Clonetics) were cultured according to manufacturer in growth medium (Clonetics): basal medium containing human epidermal growth factor, hydrocortisone, vascular endothelial growth factor, heparin binding growth factor-B, long R3-insulin-like growth factor-1, ascorbic acid, gentamicin/amphotericin and 5% FBS. These cell were allowed to reach at least 90% confluency before subjected to experimental treatments. […] Tumor necrosis factor α was from R&D Systems.
All treatments, compound-added and controls were carried out in serum free media containing 0.2% albumin. Media from all conditions were collected and used for IL-6 ELISA.

The subject of series [4] is Human aortic smooth muscle cells. Put plainly: Smooth muscle cell proliferation assay (anti-proliferation assay, perlecan). The class given is cell-based. The conditions noted are these: Homo sapiens, anti-proliferation assay (perlecan).
Experimental: Human aortic smooth muscle cells (Clonetics) were used. Cells were grown in basal medium containing 5% fetal bovine serum supplemented with growth factors, basic fibroblast growth factor, epidermal growth factor and insulin. […] The cells were then serum starved for 24 h to induce quiescence. Fresh growth medium containing no compound or 10 μM compound was then added and further incubated for 24 h. Cell number was determined by using a cell proliferation assay kit (Celltiter96 AQueous from Promega).
In series [5] the test system is cells. The series can be described thus: Cytotoxicity / lactate dehydrogenase assay and visual observation of cells. Format: cell-based. The method, then:
Assays for determining the activity of compounds capable of cytotoxic activity include those taught in herein and others that are well known in the art. In general, to determine if there is cytotoxic activity associated with a compound, cells of a particular type, in a growing stage or a quiescient stage, are treated with the compound of interest. Various parameters of cell death or cessation are used to measure the effects of the compound. For example, the amount of nucleic acid or protein synthesis can be measured or visual observation of the state of the cells, such as release from the substrate, can be used to measure the state of the cells.
An appropriate number of cells are plated in four 96-well plates, one plate for “day 0” and three plates for days 1–3. Cells are treated with at least one compound of the present invention in varying concentrations with and without the apoptosis inducer cisplatin (2 μM) (“+cis” or “−cis”). Unteated cells are also assayed with and without cisplatin. After transfection, the plates are incubated at 37° C. overnight.
An appropriate number of cells are plated in four 96-well plates, one plate for “day 0” and three plates for days 1–3. Cells are treated with at least one compound of the present invention in varying concentrations. The negative control cells have normal media conditions, a duplicate set of wells is treated with the composition in which the compound is provided, but there is no added compound and the positive control cells are treated with the apoptosis inducer cisplatin (2 μM). All of the cells are transfected with a vector having a promoter that is responsive to apoptosis conditions. When apoptosis occurs, the promoter is turned on and the lactic dehydrogenase gene is activated and the enzyme protein is made and active. Activity is easily detected with a color change. After transfection, the plates are incubated at 37° C. overnight.
About 8 mls of warmed alpha MEM LDH lysis buffer (2% Triton X100) and about 8 mls of culture media (½ dilution) are combined. Two 96-well v-bottom plates are prepared, one labeled “lysis” and one labeled “supernatant.” To lyse the cells, about 200 μl Alpha MEM lysis buffer (diluted ½) is added to one test plate from which the supernatant has been removed and added to the plate labeled supernatant. After mixing, about 200 μl of lysed cells are transferred to the lysis plate. Both the lysis and supernatant plates are centrifuged at about 1600 rpm for about 10 min. After centrifugation, about 100 μl of both the supernatant or lysate is transferred to corresponding 96-well flat-bottomed plates.
The assay for cytotoxicity uses the Cytotoxicity Detection Kit (LDH) from Roche Diagnostics Corp. (Indianapolis, Ind.). Using the directionts provided, the dye solution is mixed and added each well of the lysate and supernatant plate and incubated for up to 20–25 min at 15–25° C. in the dark.

[6] abbreviates: HAEC, @ 5 uM, read-out: % IL6 production compare to TNF stimulation of IL6 (100%).
Setting [7] is: endothelial cells, AGE stimulated.
Where [8] appears, read: read-out: % IL6 production compare to TNF stimulation of IL6 (100%), HAEC, @ 5 uM.

Read-outs that look alike come from different tables or passages of the source.

On to `COc1ccc(Nc2nc(NC3CCCCCC3)nc(NC3CCN(Cc4ccccc4)CC3)n2)cc1Cl` [Compound 134, N-(1-benzyl-piperidin-4-yl)-N′-(3-chloro-4-methoxy-phenyl)-N″-cycloheptyl-[1,3,5]-2,4,6-triamine], for which the “cell death in TNF-stimulated IL6 test” value in series [1] (HAEC, @ 10 uM) is listed as “total cell death”. In addition, the activity at 5 µM in series [2] (setting [6]) worked out at 55%. In addition, in series [3] (setting [7]), the “Toxic (AGE-treated)” value is “toxic”.
Turning to `CN1CCC(N(C)c2nc(Nc3ccc(O)c(Cl)c3)nc(NC3CCCCCC3)n2)CC1` [Compound 138], the IC50 in series [4] (read-out: Activity (note 1)) is 3 to 7 µM; in series [4] (read-out: Avg IC-50) it was 4.03 µM. For the same compound, in series [3], the “Toxic (AGE-treated)” value was “toxic”.
`COc1ccc(Nc2nc(NC3CCCCCC3)nc(NC3CCNCC3)n2)cc1Cl` [Compound 135, N^2-(3-chloro-4-methoxy-phenyl)-N^4-cycloheptyl-N^6-piperidin-4-yl-1,3,5-triazine-2,4,6-triamine]: the “cell death in TNF-stimulated IL6 test” value in series [1] (HAEC, @ 10 uM) is “total cell death”. Besides, the IC50 in series [4] (read-out: Activity (note 1)) is 3 to 7 µM; in series [4] (read-out: Avg IC-50), 5.83 µM. Also, in series [2] (setting [6]), the activity at 5 µM turned out to be 60%. For the same compound, the “Toxic (AGE-treated)” value in series [3] (setting [7]) is recorded as “toxic”.
`COc1ccc(Nc2nc(NC3CCCCCC3)nc(N(C)C3CCNCC3)n2)cc1F` [Compound 159, N^2-Cycloheptyl-N^4-(3-fluoro-4-methoxy-phenyl)-N^6-methyl-N^6piperidin-4-yl-1,3,5-triazine-2,4,6-triamine]: the “cell death in TNF-stimulated IL6 test” value in series [1] (human, 24 h, 5 uM) is given as “total cell death @ 5 and10 uM”; in series [1] (human, 24 h, 10 uM), “total cell death @ 5 and10 uM”. Besides, the results for the IC50 in series [4] (read-out: Activity (note 1)) and in series [4] (read-out: Avg IC-50) were 3 to 7 µM and 5.7 to 6.9 µM, respectively. For the same compound, the “Toxic (AGE-treated)” value in series [3] is “toxic”.
On to `CCN1CCCC1CNc1nc(Nc2ccc(OC)c(Cl)c2)nc(NC2CN3CCC2CC3)n1` (stereo not shown) [Compound 148], for which, in series [1] (human, 24 h, 10 uM), the “cell death in TNF-stimulated IL6 test” value is reported as “total cell death”. In addition, the IC50 in series [4] (read-out: Activity (note 1)) was 3 to 7 µM; in series [4] (read-out: Avg IC-50), < 5 µM. Further, in series [2] (setting [8]), the activity at 5 µM came to 60%. Also, in series [3], the “Toxic (AGE-treated)” value is “toxic”.
Regarding `COc1ccc(Nc2nc(Nc3ccc(OC)c(Cl)c3)nc(N(C)C3CCN(C)CC3)n2)cc1Cl` [Compound 121], the some toxicity in series [1] (HAEC, @ 5 uM) was ~20%. Further, in series [1] (human, 24 h, 10 uM), the “cell death in TNF-stimulated IL6 test” value is given as “total cell death”. Further, the activity at 5 µM in series [2] (setting [8]) worked out at 50%. Also, the “Toxic (AGE-treated)” value in series [3] is listed as “toxic”. Besides, in series [5], the “Starts blunting by” value turned out to be 1 µM, the “Toxic by toxicity assay at” value stood at 0.75 µM and the “rounding by” value came out at 5 µM.
